{
  "source": "paper PMC5218480",
  "about": "(PLoS ONE, 2017)",
  "system": "MV-4-11 cells",
  "assay": "Gene expression microarray analysis (Affymetrix PrimeView) and GSEA",
  "type": "cell-based, human",
  "design": "RFU PODN (11730768_x_at) / Fold change /veh PODN (11730768_x_at) / RFU LINC00158 (11744669_a_at) / Fold change /veh LINC00158 (11744669_a_at) / RFU DUSP10 (11751237_a_at) / Fold change /veh DUSP10 (11751237_a_at) / RFU ID3 (11757404_x_at) / Fold change /veh ID3 (11757404_x_at) / RFU PLEKHG5 (11737974_s_at) / Fold change /veh PLEKHG5 (11737974_s_at) / RFU LRRC4B (11730491_at) / Fold change /veh LRRC4B (11730491_at) / RFU GIMAP4 (11747438_a_at) / Fold change /veh GIMAP4 (11747438_a_at) / RFU KRT8 (11758183_x_at) / Fold change /veh KRT8 (11758183_x_at) / RFU CNN1 (11734310_a_at) / Fold change /veh CNN1 (11734310_a_at) / RFU VPS37D (11726825_at) / Fold change /veh VPS37D (11726825_at) / RFU C10orf10 (11716522_x_at) / Fold change /veh C10orf10 (11716522_x_at) / RFU KIR2DL2 /// KIR2DL4 /// KIR2DL5A /// KIR2DL5B /// KIR2DS1 /// KIR2DS2 /// KIR2DS3 /// KIR2DS4 /// KIR3DL3 /// KIR3DL3 /// KIR3DS1 (11738374_at) / Fold change /veh KIR2DL2 /// KIR2DL4 /// KIR2DL5A /// KIR2DL5B /// KIR2DS1 /// KIR2DS2 /// KIR2DS3 /// KIR2DS4 /// KIR3DL3 /// KIR3DL3 /// KIR3DS1 (11738374_at) / RFU C1QL1 (11718748_at) / Fold change /veh C1QL1 (11718748_at) / RFU TMPRSS4 (11747572_a_at) / Fold change /veh TMPRSS4 (11747572_a_at) / RFU HAMP (11756126_x_at) / Fold change /veh HAMP (11756126_x_at) / RFU RNFT2 (11725882_a_at) / Fold change /veh RNFT2 (11725882_a_at) / RFU NR4A2 (11747474_a_at) / Fold change /veh NR4A2 (11747474_a_at) / RFU ABCC12 (11746883_a_at) / Fold change /veh ABCC12 (11746883_a_at) / RFU TMEM136 (11760407_x_at) / Fold change /veh TMEM136 (11760407_x_at) / RFU CLDN22 /// WWC2 (11732394_at) / Fold change /veh CLDN22 /// WWC2 (11732394_at) / RFU HLA-DPB1 (11760878_x_at) / Fold change /veh HLA-DPB1 (11760878_x_at) / RFU SPINT1 (11716480_a_at) / Fold change /veh SPINT1 (11716480_a_at) / RFU GAP43 (11754022_s_at) / Fold change /veh GAP43 (11754022_s_at) / RFU A4GNT (11735810_at) / Fold change /veh A4GNT (11735810_at) / RFU PRB3 (11715151_x_at) / Fold change /veh PRB3 (11715151_x_at) / RFU TUBB4B (11761932_at) / Fold change /veh TUBB4B (11761932_at) / RFU CAPN14 (11732068_a_at) / Fold change /veh CAPN14 (11732068_a_at) / RFU TMCC2 (11721928_a_at) / Fold change /veh TMCC2 (11721928_a_at) / RFU IRGQ (11745062_a_at) / Fold change /veh IRGQ (11745062_a_at) / RFU FAM174B (11720279_a_at) / Fold change /veh FAM174B (11720279_a_at) / RFU TMPRSS4 (11748680_a_at) / Fold change /veh TMPRSS4 (11748680_a_at) / RFU FAM212B (11763350_a_at) / Fold change /veh FAM212B (11763350_a_at) / RFU PLEKHG5 (11743358_a_at) / Fold change /veh PLEKHG5 (11743358_a_at) / RFU ZSCAN30 (11745921_a_at) / Fold change /veh ZSCAN30 (11745921_a_at) / RFU CMKLR1 (11741424_a_at) / Fold change /veh CMKLR1 (11741424_a_at) / RFU LOC101060620 /// MAPK8IP1 (11723275_at) / Fold change /veh LOC101060620 /// MAPK8IP1 (11723275_at) / RFU SPTSSB (11747773_x_at) / Fold change /veh SPTSSB (11747773_x_at) / RFU PRSS12 (11739890_at) / Fold change /veh PRSS12 (11739890_at) / RFU BIN1 (11741810_x_at) / Fold change /veh BIN1 (11741810_x_at) / RFU WNT11 (11732464_a_at) / Fold change /veh WNT11 (11732464_a_at) / RFU C10orf10 (11716521_a_at) / Fold change /veh C10orf10 (11716521_a_at) / RFU C5orf56 (11738089_at) / Fold change /veh C5orf56 (11738089_at) / RFU CYB561 (11721691_x_at) / Fold change /veh CYB561 (11721691_x_at) / RFU ANKRD19P (11752326_a_at) / Fold change /veh ANKRD19P (11752326_a_at) / RFU OR2T12 /// OR2T33 /// OR2T8 (11738714_s_at) / Fold change /veh OR2T12 /// OR2T33 /// OR2T8 (11738714_s_at) / RFU VCAN (11748164_a_at) / Fold change /veh VCAN (11748164_a_at) / RFU JSRP1 (11732532_at) / Fold change /veh JSRP1 (11732532_at) / RFU KRTAP10-11 (11738290_x_at) / Fold change /veh KRTAP10-11 (11738290_x_at) / RFU MYO3A (11730013_a_at) / Fold change /veh MYO3A (11730013_a_at) / RFU EBF3 (11725865_a_at) / Fold change /veh EBF3 (11725865_a_at) / RFU CAMK2N1 (11719241_x_at) / Fold change /veh CAMK2N1 (11719241_x_at) / RFU C5orf56 (11738088_a_at) / Fold change /veh C5orf56 (11738088_a_at) / RFU OLFML3 (11715873_a_at) / Fold change /veh OLFML3 (11715873_a_at) / RFU LOC100653217 /// NTM (11731650_a_at) / Fold change /veh LOC100653217 /// NTM (11731650_a_at) / RFU MAPK11 (11762145_a_at) / Fold change /veh MAPK11 (11762145_a_at) / RFU FIZ1 (11724087_x_at) / Fold change /veh FIZ1 (11724087_x_at) / RFU OASL (11726364_x_at) / Fold change /veh OASL (11726364_x_at) / RFU SOX15 (11748057_x_at) / Fold change /veh SOX15 (11748057_x_at) / RFU CD79A (11719716_a_at) / Fold change /veh CD79A (11719716_a_at) / RFU HIST1H1D (11736915_at) / Fold change /veh HIST1H1D (11736915_at) / RFU CASKIN2 (11723855_a_at) / Fold change /veh CASKIN2 (11723855_a_at) / RFU LOC730098 (11760151_x_at) / Fold change /veh LOC730098 (11760151_x_at) / RFU OR4N2 (11742367_at) / Fold change /veh OR4N2 (11742367_at) / RFU PRRT2 (11749266_a_at) / Fold change /veh PRRT2 (11749266_a_at) / RFU SNX32 (11753110_a_at) / Fold change /veh SNX32 (11753110_a_at) / RFU CDHR5 (11726645_a_at) / Fold change /veh CDHR5 (11726645_a_at) / RFU RCAN1 (11760418_a_at) / Fold change /veh RCAN1 (11760418_a_at) / RFU FAM167A (11723789_a_at) / Fold change /veh FAM167A (11723789_a_at) / RFU FAM26E (11764081_at) / Fold change /veh FAM26E (11764081_at) / RFU ISYNA1 (11749810_s_at) / Fold change /veh ISYNA1 (11749810_s_at) / RFU ACY1 (11761880_at) / Fold change /veh ACY1 (11761880_at) / RFU 11764098_at / Fold change /veh 11764098_at / RFU SAMD14 (11745864_x_at) / Fold change /veh SAMD14 (11745864_x_at) / RFU NPB (11741838_a_at) / Fold change /veh NPB (11741838_a_at) / RFU TMPRSS6 (11731388_a_at) / Fold change /veh TMPRSS6 (11731388_a_at) / RFU KRTAP10-2 (11738614_at) / Fold change /veh KRTAP10-2 (11738614_at) / RFU ARHGAP8 /// PRR5-ARHGAP8 (11727945_x_at) / Fold change /veh ARHGAP8 /// PRR5-ARHGAP8 (11727945_x_at) / RFU KRTAP5-7 /// NADSYN1 (11734609_at) / Fold change /veh KRTAP5-7 /// NADSYN1 (11734609_at) / RFU RASL12 (11751679_a_at) / Fold change /veh RASL12 (11751679_a_at) / RFU CDKN2B (11736163_a_at) / Fold change /veh CDKN2B (11736163_a_at) / RFU PRF1 (11729649_at) / Fold change /veh PRF1 (11729649_at) / RFU, ZNF638 /// ZNF638-IT1 / Fold change vs veh, ZNF638 /// ZNF638-IT1 / RFU, PANK3 / Fold change vs veh, PANK3 / RFU, SH3YL1 / Fold change vs veh, SH3YL1 / RFU, ZEB2 / Fold change vs veh, ZEB2 / RFU, NRIP1 / Fold change vs veh, NRIP1 / RFU, PTTG1IP / Fold change vs veh, PTTG1IP / RFU, CAPN2 / Fold change vs veh, CAPN2 / RFU, MED14 / Fold change vs veh, MED14 / RFU, SNORA58 / Fold change vs veh, SNORA58 / RFU, C1orf63 / Fold change vs veh, C1orf63 / RFU, LRRFIP1 / Fold change vs veh, LRRFIP1 / RFU, NDUFAF7 / Fold change vs veh, NDUFAF7 / RFU, SLC12A2 / Fold change vs veh, SLC12A2 / RFU, IBTK / Fold change vs veh, IBTK / RFU, ESF1 / Fold change vs veh, ESF1 / Fold change vs veh, TMEM50B / RFU, TAOK1 / Fold change vs veh, TAOK1 / RFU, ACBD3 / Fold change vs veh, ACBD3 / RFU, TMA16 / Fold change vs veh, TMA16 / RFU, RWDD3 / Fold change vs veh, RWDD3 / RFU, BCAT1 / Fold change vs veh, BCAT1 / RFU, EDEM3 / Fold change vs veh, EDEM3 / RFU, TMEM33 / Fold change vs veh, TMEM33 / RFU, WDR75 / Fold change vs veh, WDR75 / RFU, AHCTF1 / Fold change vs veh, AHCTF1 / RFU, TFRC / Fold change vs veh, TFRC / RFU, ZDHHC17 / Fold change vs veh, ZDHHC17 / RFU, NOM1 / Fold change vs veh, NOM1 / RFU, ARL8B / Fold change vs veh, ARL8B / RFU, ZBTB11 / Fold change vs veh, ZBTB11 / RFU, TAMM41 / Fold change vs veh, TAMM41 / RFU, KIAA1704 /// LOC100996395 / Fold change vs veh, KIAA1704 /// LOC100996395 / RFU, ING1 / Fold change vs veh, ING1 / RFU, TRMT61B / Fold change vs veh, TRMT61B / RFU, FUBP3 / Fold change vs veh, FUBP3 / RFU, TP53 / Fold change vs veh, TP53 / RFU, TNKS2 / Fold change vs veh, TNKS2 / RFU, ZFP14 / Fold change vs veh, ZFP14 / RFU, ACTR2 / Fold change vs veh, ACTR2 / RFU, PPP3R1 / Fold change vs veh, PPP3R1 / RFU, PIK3R1 / Fold change vs veh, PIK3R1 / RFU, HNRNPA1 / Fold change vs veh, HNRNPA1 / RFU, RNF170 / Fold change vs veh, RNF170 / RFU, ZNF28 / Fold change vs veh, ZNF28 / RFU, RNGTT / Fold change vs veh, RNGTT / RFU, OGT / Fold change vs veh, OGT / RFU, BRD1 / Fold change vs veh, BRD1 / RFU, MARS / Fold change vs veh, MARS / RFU, ZNF655 / Fold change vs veh, ZNF655 / RFU, FAHD1 / Fold change vs veh, FAHD1 / RFU, BDP1 / Fold change vs veh, BDP1 / RFU, LRRCC1 / Fold change vs veh, LRRCC1 / RFU, ARID1A / Fold change vs veh, ARID1A / RFU, ZNF146 / Fold change vs veh, ZNF146 / RFU, ZNF330 / Fold change vs veh, ZNF330 / RFU, GPN3 / Fold change vs veh, GPN3 / RFU, C9orf123 / Fold change vs veh, C9orf123 / RFU, N4BP2L2 / Fold change vs veh, N4BP2L2 / RFU, ARFIP1 / Fold change vs veh, ARFIP1 / RFU, FAM179B / Fold change vs veh, FAM179B / RFU, BCL10 / Fold change vs veh, BCL10 / RFU, UHRF1BP1L / Fold change vs veh, UHRF1BP1L / RFU, BET1 / Fold change vs veh, BET1 / RFU, CNOT2 / Fold change vs veh, CNOT2 / RFU, ZNF268 / Fold change vs veh, ZNF268 / Fold change vs veh, ZNF507 / RFU, DGCR2 / Fold change vs veh, DGCR2 / RFU, WDSUB1 / Fold change vs veh, WDSUB1 / Fold change vs veh, HSP90B1 /// MIR3652 / RFU, ADSS / Fold change vs veh, ADSS / RFU, GK / Fold change vs veh, GK / RFU, ZNF148 / Fold change vs veh, ZNF148 / RFU, TAF9 / Fold change vs veh, TAF9 / RFU, SLC1A5 / Fold change vs veh, SLC1A5 / RFU, SLMO2 / Fold change vs veh, SLMO2 / RFU, ABCC4 / Fold change vs veh, ABCC4 / RFU, LOC101060439 /// RAP1B / Fold change vs veh, LOC101060439 /// RAP1B / RFU, RFX7 / Fold change vs veh, RFX7 / RFU, GTPBP10 / Fold change vs veh, GTPBP10 / RFU, CNEP1R1 / Fold change vs veh, CNEP1R1 / RFU, BIVM-ERCC5 /// ERCC5 / Fold change vs veh, BIVM-ERCC5 /// ERCC5 / RFU, ILF3 / Fold change vs veh, ILF3 / RFU 11762660_at / Fold change /veh 11762660_at / RFU VCAN (11757783_s_at) / Fold change /veh VCAN (11757783_s_at) / RFU DDX43 (11728927_at) / Fold change /veh DDX43 (11728927_at) / RFU KRT8 (11758188_x_at) / Fold change /veh KRT8 (11758188_x_at) / RFU NKD1 (11759106_at) / Fold change /veh NKD1 (11759106_at) / RFU SRD5A1 (11742802_a_at) / Fold change /veh SRD5A1 (11742802_a_at) / RFU TPSAB1 /// TPSB2 (11721975_s_at) / Fold change /veh TPSAB1 /// TPSB2 (11721975_s_at) / RFU GSTM3 (11746129_a_at) / Fold change /veh GSTM3 (11746129_a_at) / RFU IL23R (11737362_x_at) / Fold change /veh IL23R (11737362_x_at) / RFU TMEM51 (11727254_a_at) / Fold change /veh TMEM51 (11727254_a_at) / RFU PIWIL2 (11732686_x_at) / Fold change /veh PIWIL2 (11732686_x_at) / RFU ORM1 (11744905_x_at) / Fold change /veh ORM1 (11744905_x_at) / RFU CCDC152 (11743942_at) / Fold change /veh CCDC152 (11743942_at) / RFU ECM1 (11717891_a_at) / Fold change /veh ECM1 (11717891_a_at) / RFU IL23R (11748794_a_at) / Fold change /veh IL23R (11748794_a_at) / RFU TNFAIP8L3 (11732012_x_at) / Fold change /veh TNFAIP8L3 (11732012_x_at) / RFU MBOAT4 (11741988_at) / Fold change /veh MBOAT4 (11741988_at) / RFU 11764193_at / Fold change /veh 11764193_at / RFU TMEM53 (11763286_at) / Fold change /veh TMEM53 (11763286_at) / RFU MAGEB2 (11727129_at) / Fold change /veh MAGEB2 (11727129_at) / RFU TMEM200A (11744735_a_at) / Fold change /veh TMEM200A (11744735_a_at) / RFU CCDC152 (11751479_a_at) / Fold change /veh CCDC152 (11751479_a_at) / RFU FAM211A (11726209_a_at) / Fold change /veh FAM211A (11726209_a_at) / RFU RGS16 (11746705_a_at) / Fold change /veh RGS16 (11746705_a_at) / RFU VCAN (11755009_s_at) / Fold change /veh VCAN (11755009_s_at) / RFU RHOB (11743442_s_at) / Fold change /veh RHOB (11743442_s_at) / RFU RGS16 (11720943_a_at) / Fold change /veh RGS16 (11720943_a_at) / RFU RGS16 (11720944_at) / Fold change /veh RGS16 (11720944_at) / RFU, VPS4B / Fold change vs veh, VPS4B / RFU, CREB1 / Fold change vs veh, CREB1 / RFU, DNAJC13 / Fold change vs veh, DNAJC13 / RFU, GNAQ / Fold change vs veh, GNAQ / RFU, CDK5R1 / Fold change vs veh, CDK5R1 / RFU, ZRANB3 / Fold change vs veh, ZRANB3 / RFU, CUL4A / Fold change vs veh, CUL4A / RFU, CCNY / Fold change vs veh, CCNY / RFU, UFL1 / Fold change vs veh, UFL1 / RFU, COG3 / Fold change vs veh, COG3 / RFU, DIAPH2 / Fold change vs veh, DIAPH2 / RFU, SKA2 / Fold change vs veh, SKA2 / RFU, AFF3 / Fold change vs veh, AFF3 / RFU, LMF1 / Fold change vs veh, LMF1 / RFU, IPO11 / Fold change vs veh, IPO11 / RFU, DFFB / Fold change vs veh, DFFB / RFU, FOXP1 / Fold change vs veh, FOXP1 / RFU, CARD8 / Fold change vs veh, CARD8 / RFU, STRN3 / Fold change vs veh, STRN3 / RFU, ADK / Fold change vs veh, ADK / RFU, RASSF2 / Fold change vs veh, RASSF2 / RFU, WIPF1 / Fold change vs veh, WIPF1 / RFU, LARP1B / Fold change vs veh, LARP1B / RFU, RASA1 / Fold change vs veh, RASA1 / RFU, RB1 / Fold change vs veh, RB1 / RFU, PPFIA1 / Fold change vs veh, PPFIA1 / RFU, MAT2A / Fold change vs veh, MAT2A / RFU, CCT5 / Fold change vs veh, CCT5 / RFU, WDR92 / Fold change vs veh, WDR92 / RFU, CUX1 / Fold change vs veh, CUX1 / RFU, TTC7A / Fold change vs veh, TTC7A / RFU, TMEM135 / Fold change vs veh, TMEM135 / RFU, DEPTOR / Fold change vs veh, DEPTOR / RFU, CPM / Fold change vs veh, CPM / RFU, DNAJB6 / Fold change vs veh, DNAJB6 / RFU, CACNA2D3 / Fold change vs veh, CACNA2D3 / RFU, DTX4 / Fold change vs veh, DTX4 / RFU, TFCP2 / Fold change vs veh, TFCP2 / RFU, GMCL1 /// GMCL1P1 / Fold change vs veh, GMCL1 /// GMCL1P1 / RFU, AEBP2 / Fold change vs veh, AEBP2 / RFU, SNHG1 /// SNORD22 /// SNORD25 /// SNORD26 /// SNORD27 /// SNORD28 /// SNORD29 /// SNORD31 / Fold change vs veh, SNHG1 /// SNORD22 /// SNORD25 /// SNORD26 /// SNORD27 /// SNORD28 /// SNORD29 /// SNORD31 / Fold change (Aza/veh), C12orf56 (ProbeSet 11735607_a_at) / Fold change (ACY-1035/veh), C12orf56 (ProbeSet 11735607_a_at) / Fold change (Aza/veh), FGFR1OP (ProbeSet 11751329_s_at) / Fold change (ACY-1035/veh), FGFR1OP (ProbeSet 11751329_s_at) / Fold change (Aza/veh), VPS36 (ProbeSet 11739960_a_at) / Fold change (ACY-1035/veh), VPS36 (ProbeSet 11739960_a_at) / RFU SYPL1 (11715823_x_at) / Fold change /veh SYPL1 (11715823_x_at) / RFU IGFBP7 (11715501_s_at) / Fold change /veh IGFBP7 (11715501_s_at) / RFU REEP3 (11722064_at) / Fold change /veh REEP3 (11722064_at) / RFU IGLL1 (11728026_x_at) / Fold change /veh IGLL1 (11728026_x_at): dose or concentration left out as unconfirmed",
  "conditions": "ProbeSet 11717914_a_at; LIST B",
  "data": [
    {"smiles": "Nc1ccc(-c2cccs2)cc1NC(=O)c1ccc2c(c1)cc(C1CC1)n2CCN1CCOCC1", "note": "[ACY-1035]", "values": [
      {"measurement": "RFU, BIVM-ERCC5 /// ERCC5", "value": 177.23, "unit": "RFU"}
    ]}
  ]
}
